Measured values from patent publication US11919858B2, “Aminonapthoquinone compounds and pharmaceutical composition for blocking ubiquitination-proteasome system in diseases” (Calgent Biotechnology Co., Ltd., priority 2015, dated 2024).
Where two headings read alike, the source gives them in different places.

Columns and labels:
HCT-116 = experiment: Growth inhibition assay; format: cell-based; details: Homo sapiens, HCT-116; read-out: HCT-116 GI50 (μM) Mean ± S.E.
Procedure: (§1) Cells were seeded in 96-well plastic plates and exposed to MPT0L056 for 48 hours. Cell viability was assessed using the 3-(4,5-dimethylthiazol-2-yl)-2,5-diphenyltetrazolium bromide assay. Growth inhibition was expressed as the percentage of surviving cells in drug-treated versus DMSO-treated control cells.
(§2) The compounds of the invention were subjected to growth inhibition assay.

HL-60 = experiment: Growth inhibition assay; format: cell-based; details: Homo sapiens, HL-60; read-out: HL-60 IC50 (μM) Mean ± S.E.
Procedure: as §1, §2

Hep 3B = experiment: Growth inhibition assay; format: cell-based; details: Homo sapiens, Hep3B; read-out: Hep3B GI50 (μM) Mean ± S.E.
Procedure: as §1, §2

MDA-MB-231 = experiment: Growth inhibition assay; format: cell-based; details: Homo sapiens, MDA-MB-231; read-out: MDA-MB-231 GI50 (μM) Mean ± S.E.
Procedure: as §1, §2

[1] = system: human RPMI8226 multiple myeloma; experiment: Human RPMI8226 multiple myeloma xenograft in female nude mice (TMU-RPMI8226-e0001); format: in vivo; details: SAHA 100 mg/kg once every day
From the text: The 42-day study utilized five groups of mice (n=6) bearing established human PRMI8226 multiple myeloma with mean volumes of ˜85 mm^3 on D1. […] (FIG. 3).

[2] = system: human A2780 ovarian adenocarcinoma; experiment: Human A2780 ovarian cancer xenograft in female nude mice (TMU-A2780-e0001); format: in vivo
[3] = system: HCT116 human colorectal adenocarcinoma
Procedure: MPT0L056 was used to evaluate for activity against the HCT116 human colorectal adenocarcinoma.
However, MPT0E028 was administered orally (p.o.) in 1.0% CMC and 0.5% Tween 80 and given dose at 25 mg/kg daily to end schedule.
Each animal was euthanized when the tumors reached the predetermined endpoint size of 1,000 mm^3. The time to endpoint (TTE) for each mouse was calculated by the following equation:
[formula] where TTE is expressed in days, endpoint volume is in mm^3, b is the intercept, and m is the slope of the line obtained by linear regression of a log-transformed tumor growth data set. The data set is comprised of the first observation that exceeded the study endpoint volume and the three consecutive observations that immediately preceded the attainment of the endpoint volume. The calculated TTE is usually less than the day on which an animal is euthanized for tumor size. […] An animal classified as having died from treatment-related (TR) causes or non-treatment-related metastasis (NTRm) causes was assigned a TTE value equal to the day of death. An animal classified as having died from non-treatment-related (NTR) causes was excluded from TTE calculations.
Treatment efficacy was determined from tumor growth delay (TGD), which is defined as the increase in the median TTE for a treatment group compared to the control group: TGD=T−C, expressed in days, or as a percentage of the median TTE of the control group:
[formula] where: • T=median TTE for a treatment group, • C=median TTE for control Group 1.
Treatment efficacy was also determined from the tumor volumes of animals remaining in the study on the last day, and from the number of regression responses. The MTV(n) is defined as the median tumor volume on D59 in the number of animals remaining, n, whose tumors have not attained the endpoint volume.
Treatment may cause a partial regression (PR) or a complete regression (CR) of the tumor in an animal. […] An animal with a CR at the termination of a study is additionally classified as a tumor-free survivor (TFS).
Animals were weighed daily for the first five days, then twice weekly until the completion of the study. The mice were examined frequently for overt signs of any adverse, drug-related side effects. Acceptable toxicity for the MTD of cancer drugs is defined as a group mean BW loss of 20% or less during the test, and not more than one TR death among ten animals. A death is classified as TR if there is evidence of treatment side effects from clinical signs and/or necropsy or from unknown causes during dosing period or within 10 days of the last dose. A death is classified as NTR if there is no evidence that the death was related to treatment side effects.
The logrank test was used to determine the statistical significance of the difference between the TTE values of two groups, except any NTR deaths. Statistical and graphical analyses were performed with Prism 3.03 (GraphPad) for Windows. The two-tailed statistical analyses were conducted at P=0.05. Kaplan-Meier plots show the percentage of animals remaining in the study versus time. The Kaplan-Meier plots use the same data set as the log rank test. The tumor growth curves show the group median tumor volume, on a log scale as a function of time.

[4] = system: human MDA-MB-231 breast adenocarcinoma; experiment: Human MDA-MB-231 breast cancer xenograft in female nude mice (TMU-MDA-MB-231-e0002); details: bortezomib 1 mg/kg QWK to end
[5] = Group 3: bortezomib 1 mg/kg iv qwk to endpoint
[6] = Group 3: bortezomib 1 mg/kg iv qwk to endpoint, listed as Bortezomib
[7] = Group 6: bortezomib 1 mg/kg iv qwk + MPT0E028 25 mg/kg po qd to endpoint
[8] = Group 6: bortezomib 1 mg/kg iv qwk + MPT0E028 25 mg/kg po qd to endpoint, listed as Bortezomib

Molecule `O=C(Nc1ccc2[nH]ccc2c1)c1ccc(CNC2=C(Cl)C(=O)c3ccccc3C2=O)cc1` [MPT0L113, 4-((3-chloro-1,4-dioxo-1,4-dihydronaphthalen-2-ylamino)methyl)-N-(1H-indol-5-yl)benzamide] has a GI50 (HCT-116) of 10 to 30 µM, an IC50 (HL-60) of 8.92 ± 0.39 µM and a GI50 (Hep 3B) of 10 to 30 µM. The GI50 (MDA-MB-231) was 10 to 30 µM.
`Cc1cc2cc(NC(=O)c3ccc(CNC4=C(Cl)C(=O)c5ccccc5C4=O)cc3)ccc2[nH]1` [MPT0L114, 4-((3-chloro-1,4-dioxo-1,4-dihydronaphthalen-2-ylamino)methyl)-N-(2-methyl-1H-indol-5-yl)benzamide] showed a GI50 (HCT-116) of 10 to 30 µM, an IC50 (HL-60) of 10 to 30 µM and a GI50 (Hep 3B) of 10 to 30 µM. For the same molecule, the GI50 (MDA-MB-231) was 10 to 30 µM.
Work on `O=C(Nc1cccc2[nH]ccc12)c1ccc(CNC2=C(Cl)C(=O)c3ccccc3C2=O)cc1` [MPT0L116, 4-((3-chloro-1,4-dioxo-1,4-dihydronaphthalen-2-ylamino)methyl)-N-(1H-indol-4-yl)benzamide] yielded a GI50 (HCT-116) of 10 to 30 µM, an IC50 (HL-60) of 4.06 ± 1.82 µM and a GI50 (Hep 3B) of 10 to 30 µM. The GI50 (MDA-MB-231) was 10 to 30 µM.
`O=C(Nc1ccc2cn[nH]c2c1)c1ccc(CNC2=C(Cl)C(=O)c3ccccc3C2=O)cc1` [MPT0L118, 4-((3-chloro-1,4-dioxo-1,4-dihydronaphthalen-2-ylamino)methyl)-N-(1H-indazol-6-yl)benzamide] showed a GI50 (HCT-116) of 10 to 30 µM, an IC50 (HL-60) of 7.39 ± 3.49 µM and a GI50 (Hep 3B) of 10 to 30 µM. For the same molecule, the GI50 (MDA-MB-231) was 10 to 30 µM.
With `O=C(Nc1cnc2[nH]ccc2c1)c1ccc(CNC2=C(Cl)C(=O)c3ccccc3C2=O)cc1` [MPT0L119, 4-((3-chloro-1,4-dioxo-1,4-dihydronaphthalen-2-ylamino)methyl)-N-(1H-pyrrolo[2,3-b]pyridin-5-yl)benzamide] the GI50 (HCT-116) was 10 to 30 µM, the IC50 (HL-60) was 10 to 30 µM and the GI50 (Hep 3B) was 10 to 30 µM. It also gave a GI50 (MDA-MB-231) of 10 to 30 µM.
For `O=C(Nc1cnc2[nH]ncc2c1)c1ccc(CNC2=C(Cl)C(=O)c3ccccc3C2=O)cc1` [MPT0L120, 4-((3-chloro-1,4-dioxo-1,4-dihydronaphthalen-2-ylamino)methyl)-N-(1H-pyrazolo[3,4-b]pyridin-5-yl)benzamide], the GI50 (HCT-116) was 10 to 30 µM, the IC50 (HL-60) was 7.31 ± 1.94 µM and the GI50 (Hep 3B) was 10 to 30 µM. The GI50 (MDA-MB-231) was 10 to 30 µM.
Work on `Cn1ccc2c(NC(=O)c3ccc(CNC4=C(Cl)C(=O)c5ccccc5C4=O)cc3)ncnc21` [MPT0L121, 4-((3-chloro-1,4-dioxo-1,4-dihydronaphthalen-2-ylamino)methyl)-N-(7-methyl-711-pyrrolo[2,3-d]pyrimidin-4-yl)benzamide] yielded a GI50 (HCT-116) of 10 to 30 µM, an IC50 (HL-60) of 2.68 ± 0.17 µM and a GI50 (Hep 3B) of 10 to 30 µM. The GI50 (MDA-MB-231) was 10 to 30 µM.
With `O=C(CCCCCCC(=O)Nc1ccccc1)NO` [SAHA, reference compound] the antitumor activity [1] was “also showed antitumor activity” and the “mice with complete regression” value [1] was “one of six”.
With `CC(C)C[C@H](NC(=O)[C@H](Cc1ccccc1)NC(=O)c1cnccn1)B(O)O` [bortezomib, reference compound] the antitumor activity ([2]; bortezomib 1 mg/kg QWK to end) was “showed antitumor activity”, the “Median survival” value ([3]; Group 1 vs 3: bortezomib 1 mg/kg) was 38.95 and the “Median survival” value ([3]; Group 1 vs 6: bortezomib + MPT0E028 1/25 mg/kg) was 38.4. For the same molecule, the “% TGD” value [3, 5] was 71%, the “MTV (n) Day 59” value [3, 5] was 683 mm^3 and the “Median TTE” value [3, 5] was 38.9 days. The “No. of CR” value [3, 5] was 2, the “No. of LTTFS” value [3, 5] was 0 and the “No. of NTR” value [3, 5] was 0. For the same molecule, the “No. of PR” value [3, 5] was 1, the “No. of TR” value [3, 5] was 0 and the T-C [3, 5] was 16.2 days. For the same molecule, the “antitumor activity (logrank analysis)” value [3, 5] was “produced significant antitumor activity”, the “Logrank Significance” value ([3]; Group 3: bortezomib 1 mg/kg iv qwk to endpoint, compared to Group 1) was “* (* = P < 0.05)” and the “% TGD” value [3, 6] was 71%. For the same molecule, the “No. of CR” value [3, 6] was “two”, the “No. of PR” value [3, 6] was “one” and the “% TGD” value [3, 7] was 69%. The “MTV (n) Day 59” value [3, 7] was 0 mm^3, the “Median TTE” value [3, 7] was 38.4 days and the “No. of CR” value [3, 7] was 1. For the same molecule, the “No. of LTTFS” value [3, 7] was 1, the “No. of NTR” value [3, 7] was 4 and the “No. of PR” value [3, 7] was 1. For the same molecule, the “No. of TR” value [3, 7] was 0, the T-C [3, 7] was 15.7 days and the “% TGD” value [3, 8] was 69%. For the same molecule, the “No. of CR” value [3, 8] was “one”, the “No. of LTTFS” value [3, 8] was “one” and the “No. of PR” value [3, 8] was “one”. The antitumor activity [4] was “did not show antitumor activity”.
For `N.N.[Cl][Pt][Cl]` [cisplatin, reference compound], the antitumor activity ([2]; cisplatin 5 mg/kg QWK to end) was “showed antitumor activity”.
